Assay results taken from US10166290B2, “Intralesional (Intratumoral) dinitrochlorobenzene and associated compounds coadministered with checkpoint inhibitors for cancer treatment including treatment of metastatic cutaneous cancers” (priority 2017, dated 2019).
Where two headings read alike, the source gives them in different places.

How the values were obtained:
[1] = test system: metastatic cutaneous tumor nodules; details: some 53 rounds of intralesional treatment, published data (3), cited from earlier work
[2] = Solubility of DNCB powder in acetone; assay type: physicochemical; details: acetone diluent
Source text: (§1) A drug mask and latex gloves should be used when working with the DNCB powder while preparing its dilution and preparation for injection. […] It should be noted that DNCB powder is irritating, and is also immunogenic because of its haptene like properties. […] Therefore preadministration of lidocaine or another injectable anesthetic should be used to infiltrate the tumor nodule injection site prior to the injection into the same site of the DNCB solution in acetone.

[3] = test system: progressive, locally metastatic melanoma; test: Intralesional DNCB injections into melanoma satellite / in transit metastatic lesions, case reports of three patients; assay type: in vivo, human
Source text: Following are the case reports of three long term (over ten year) survivors treated with intralesional DNCB in the setting of what was apparently uncontrollable, progressive, locally metastatic melanoma, ordinarily lethal as a result of subsequent progressive metastatic disease to the liver, lungs and/or brain.
Patient #1 was […] when they presented for treatment with progressive satellitosis and in transit metastases in their right leg. Four years previously they had undergone elsewhere a wide excision and split thickness skin grafting for a Clark Level IV melanoma of their right calf. […] One month prior to their presentation with satellitosis, recurrence had been noticed in the skin of the right popliteal fossa, and slightly higher. Their surgeon had planned to do a local excision in the region but had desisted when, at the time of their skin incision, multiple metastatic deposits were grossly visible in the deep dermal and subcutaneous regions. […] Two weeks after presentation, at the time of their first round of intralesional injections, the patient was noted to have 14 metastatic lesions in the posterior thigh region. These were each infiltrated with xylocaine and injected with DNCB. Each lesion was individually marked and followed. It was later estimated that 13 of the 14 lesions injected on this round ultimately regressed. A month after the first round of injections the patient underwent a second round of injections into five lesions on the posterior thigh. Four weeks after their second round of injections, a third round of injections was carried out for 10 lesions which had newly appeared. […] Accordingly the patient was taken to the operating room and an excision was carried out. […]
Patient #3 was […] when they saw their local physician in upstate New York because of a pigmented posterior scalp lesion. Biopsy at that time was originally read as a (benign) blue nevus. […] The reoccurance led to a rebiopsy, now one year after the original biopsy which had been read as benign. […]

[4] = Side effects of intralesional DNCB injections in the case reports; assay type: in vivo, human
Source text: Patient #3 was […] when they saw their local physician in upstate New York because of a pigmented posterior scalp lesion. Biopsy at that time was originally read as a (benign) blue nevus. The diagnosis was later felt to be incorrect after a recurrent lesion at the same location continued to advance, becoming larger and bleeding when they combed their hair. The reoccurance led to a rebiopsy, now one year after the original biopsy which had been read as benign. […] A re-review of the slides from the first biopsy was then carried out. […] The patient was referred to the Memorial Sloane Kettering Hospital in New York City and was prepared for urgent wide excision and skin grafting of their posterior scalp lesions. […] The operative procedure was cancelled and the patient was referred. At the time of presentation initial radiographic evaluation for distant disease was negative. They received intralesional DNCB injections of between two and 10 satellite lesions every 4-6 weeks. On several occasions histologic or fine needle aspiration biopsy was carried out to continue to confirm the malignant nature of the lesions before intralesional injection. Biopsies were also carried out in order to confirm the absence of malignant cells in some post-injection inflammatory sites. […] Four months after their presentation, they were noted to have fewer than usual malignant lesions for injection, and received only 2 DNCB injections. However 1 month later they underwent 10 DNCB injections. One month after that they underwent DNCB injections of 8 malignant scalp lesions. Another month later they underwent intralesional DNCB injection of 10 malignant satellite scalp lesions. One and two months later they underwent DNCB injection of 8 lesions on each of the two visits. Five weeks later and 5 weeks after that, 2 lesions were injected on each visit. Chest xray and distant metastatic evaluations remained negative. The injection sites were being routinely pre-anesthetized with 0.5% lidocaine injections containing 1:100,000 epinephrine a few minutes before the injections with DNCB in acetone. Nevertheless the DNCB injection sites were uncomfortable for 4-6 hours after the lidocaine wore off, frequently with slight residual “soreness” the next day. Their last-mentioned round of two injections took place 11 months after the beginning of their injections. No new lesions were apparent for the next 2 months. The patient reported that after this last mentioned round of two injections, there was residual scalp discomfort for 8 days. […] Their strength and activity remained normal, including frequent vigorous dancing with their spouse. They often brought photographs of their scalp taken between visits. They occasionally reported sensations in uninjected areas in the scalp, ear or mastoid regions. No new lesions were apparent for 2 months.
as §1

Question: For O=[N+]([O-])c1ccc(Cl)c([N+](=O)[O-])c1 [DNCB, 2, 4 dinitrochlorobenzene], which “side effects of intralesional treatment” value [1] is on record?
Answer: local, consisting of erythema or ulceration, not life-threatening, and not associated with any internal organ damage or defects

Question: What about the “side effects of intralesional treatment” value ([1]; listed as dinitrochlorobenzene) of the same compound?
Answer: without the undesirable checkpoint inhibitor potential side effect of attacks against normal organs

Question: And the “side effects of intralesional treatment” value ([1]; listed as dinitrohalogenated compound)?
Answer: side effects essentially restricted to only side effects related to inflammation at the local injection sites

Question: And the solubility in acetone [2]?
Answer: ready solubility

Question: What about the “time apparently disease free between last injections and death” value ([3]; Patient #1, after sixth round of injections) of the same compound?
Answer: 30 years

Question: And the “time patient remained well with no evidence of metastasis after end of injections” value ([3]; Patient #2)?
Answer: 12 years

Question: And the “period with no apparent melanoma following last intralesional injection” value ([3]; Patient #3)?
Answer: 18 year

Question: What about the “constitutional symptoms such as fatigue, fever, or malaise” value ([4]; Patient #3) of the same compound?
Answer: no constitutional symptoms

Question: What about the “duration of injection site discomfort after the lidocaine wore off” value ([4]; Patient #3, DNCB in acetone, sites pre-anesthetized with 0.5% lidocaine) of the same compound?
Answer: 4 to 6 h

Question: And the “facial swelling after injections” value ([4]; Patient #3, after round of 3 lesions injected)?
Answer: mild facial swelling for a few days

Question: What about the “duration of residual scalp discomfort” value ([4]; Patient #3, after round of two injections 11 months after beginning) of the same compound?
Answer: 8 days

Question: And the “local effect of the DNCB solution in acetone on injection” value ([4]; solution in acetone)?
Answer: irritating locally, and causes pain at the injection site
